Test results taken from US6358885B1, “Substituted phenylheterocyclic herbicides” (Mississippi State University, priority 1992, dated 2002).

Tests used:
barley [1] = test: Test B preemergence/postemergence greenhouse plant response rating 0 to 10; type: in vivo, Hordeum vulgare; conditions: 0 to 10 scale
Procedure, shortened: (§1)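 Test chemicals were sprayed onto freshly planted seed and, concurrently, onto young plants between the one and four leaf stage. After a twelve- to sixteen-day greenhouse period, each species was visually compared with untreated controls.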

pigweed = test: Test C preemergence/postemergence greenhouse plant response rating 0 to 100; type: in vivo, Amaranthusretroflexus; conditions: POSTEMERGENCE
Procedure, shortened: (§2)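 Compounds in non-phytotoxic solvent went onto sandy loam before emergence (seeded one day earlier) or onto plants at the one-to-four leaf stage. Duck salad was treated via flood water (~2.5 cm, maintained) over silt loam.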

ryegrass = test: as above; type: in vivo, Lolium multiflorum; conditions: POSTEMERGENCE
Procedure, shortened: as §2

soybean [2] = test: Test B preemergence/postemergence greenhouse plant response rating 0 to 10; type: in vivo, Glycine max; conditions: 0 to 10 scale
Procedure, shortened: as §1

sugar beet = test: as above; type: in vivo, Beta vulgaris; conditions: 0 to 10 scale
Procedure, shortened: as §1

rape = test: Test C preemergence/postemergence greenhouse plant response rating 0 to 100; type: in vivo, Brassica napus; conditions: POSTEMERGENCE
Procedure, shortened: as §2

umbrella sedge = test: Test C flood test plant response rating 0 to 100; type: in vivo, Cyperus difformis
Procedure, shortened: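 Compounds in non-phytotoxic solvent applied preemergence to sandy loam one day after planting, postemergence at the 1–4 leaf stage, or to ~2.5 cm floodwater over silt loam.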

cocklebur = test: Test B preemergence/postemergence greenhouse plant response rating 0 to 10; type: in vivo, Xanthium pensylvanicum; conditions: 0 to 10 scale
Procedure, shortened: as §1

barley [3] = test: Test C preemergence/postemergence greenhouse plant response rating 0 to 100; type: in vivo, Hordeum vulgare; conditions: POSTEMERGENCE
Procedure, shortened: as §2

wild buckwheat = test: Test B preemergence/postemergence greenhouse plant response rating 0 to 10; type: in vivo, Polygonum convolvulus; conditions: POSTEMERGENCE, 0 to 10 scale
Procedure, shortened: as §1

chickweed [4] = test: as above; type: in vivo, Stellaria media; conditions: POSTEMERGENCE, 0 to 10 scale
Procedure, shortened: as §1

blackgrass = test: Test C preemergence/postemergence greenhouse plant response rating 0 to 100; type: in vivo, Alopecurus myosuroides; conditions: POSTEMERGENCE
Procedure, shortened: as §2

velvetleaf = test: Test B preemergence/postemergence greenhouse plant response rating 0 to 10; type: in vivo, Abutilon theophrasti; conditions: 0 to 10 scale
Procedure, shortened: as §1

morningglory = test: as above; type: in vivo, Ipomoea hederacea; conditions: 0 to 10 scale
Procedure, shortened: as §1

sorghum = test: as above; type: in vivo, Sorghum bicolor; conditions: 0 to 10 scale
Procedure, shortened: as §1

soybean [5] = test: Test C preemergence/postemergence greenhouse plant response rating 0 to 100; type: in vivo, Glycine max; conditions: POSTEMERGENCE
Procedure, shortened: as §2

bedstraw = test: Test B preemergence/postemergence greenhouse plant response rating 0 to 10; type: in vivo, Galium aparine; conditions: POSTEMERGENCE, 0 to 10 scale
Procedure, shortened: as §1

chickweed [6] = test: Test C preemergence/postemergence greenhouse plant response rating 0 to 100; type: in vivo, Stellaria media; conditions: POSTEMERGENCE
Procedure, shortened: as §2

C=CCN1C(=O)COc2cc(F)c(-c3nn4c(c3Cl)CCCC4)cc21 [Compound 33]
40: Plant response rating (0 to 100), Ryegrass (ryegrass; Rate 4 g/ha) | Plant response rating (0 to 100), Barley Igri (barley [3]; Rate 4 g/ha) | Plant response rating (0 to 100), Soybean (soybean [5]; Rate 4 g/ha) | Plant response rating (0 to 100), Chickweed (chickweed [6]; Rate 1 g/ha)
50: Plant response rating (0 to 100), Ryegrass (ryegrass; Rate 16 g/ha) | Plant response rating (0 to 100), Barley Igri (barley [3]; Rate 16 g/ha) | Plant response rating (0 to 100), Blackgrass (blackgrass; Rate 4 g/ha) | Plant response rating (0 to 100), Blackgrass (blackgrass; Rate 16 g/ha)
8: Plant response rating, Soybean (soybean [2]; POSTEMERGENCE, Rate 10 g/ha) | Plant response rating, Bedstraw (bedstraw; Rate 10 g/ha)
80: Plant response rating Umbrella sedge (umbrella sedge; flood test species listed under POSTEMERGENCE, 62 g/ha, 0 to 100 scale) | Plant response rating (0 to 100), Soybean (soybean [5]; Rate 16 g/ha)
60: Plant response rating Ryegrass (ryegrass; 62 g/ha, 0 to 100 scale) | Plant response rating Barley Igri (barley [3]; 62 g/ha, 0 to 100 scale) | Plant response rating, Blackgrass (blackgrass; 62 g/ha, 0 to 100 scale) | Plant response rating (0 to 100), Chickweed (chickweed [6]; Rate 4 g/ha)
100: Plant response rating Pigweed (pigweed; 62 g/ha, 0 to 100 scale) | Plant response rating (0 to 100), Pigweed (pigweed; Rate 1 g/ha) | Plant response rating (0 to 100), Pigweed (pigweed; Rate 4 g/ha) | Plant response rating (0 to 100), Pigweed (pigweed; Rate 16 g/ha) | Plant response rating, Rape (rape; 62 g/ha, 0 to 100 scale) | Plant response rating (0 to 100), Rape (rape; Rate 1 g/ha) | Plant response rating (0 to 100), Rape (rape; Rate 4 g/ha) | Plant response rating (0 to 100), Rape (rape; Rate 16 g/ha) | Plant response rating, Soybean (soybean [5]; 62 g/ha, 0 to 100 scale) | Plant response rating, Chickweed (chickweed [6]; 62 g/ha, 0 to 100 scale)
30: Plant response rating (0 to 100), Ryegrass (ryegrass; Rate 1 g/ha) | Plant response rating (0 to 100), Blackgrass (blackgrass; Rate 1 g/ha) | Plant response rating (0 to 100), Soybean (soybean [5]; Rate 1 g/ha)
5: Plant response rating, Cocklebur (cocklebur; PREEMERGENCE, Rate 50 g/ha)
1: Plant response rating, Barley (barley [1]; PREEMERGENCE, Rate 50 g/ha)
0: Plant response rating, Barley (barley [1]; PREEMERGENCE, Rate 10 g/ha) | Plant response rating, Cocklebur (cocklebur; PREEMERGENCE, Rate 10 g/ha) | Plant response rating, Sorghum (sorghum; PREEMERGENCE, Rate 50 g/ha)
70: Plant response rating (0 to 100), Umbrella sedge (umbrella sedge; Rate 16 g/ha, under POSTEMERGENCE head (flood test species))
6: Plant response rating, Sorghum (sorghum; POSTEMERGENCE, Rate 10 g/ha) | Plant response rating, Sorghum (sorghum; POSTEMERGENCE, Rate 50 g/ha)
10: Plant response rating, Sugar beet (sugar beet; POSTEMERGENCE, Rate 10 g/ha) | Plant response rating, Sugar beet (sugar beet; POSTEMERGENCE, Rate 50 g/ha) | Plant response rating, Sugar beet (sugar beet; PREEMERGENCE, Rate 50 g/ha) | Plant response rating (0 to 100), Umbrella sedge (umbrella sedge; POSTEMERGENCE section, flood test, Rate 1 g/ha) | Plant response rating, Cocklebur (cocklebur; POSTEMERGENCE, Rate 10 g/ha) | Plant response rating, Cocklebur (cocklebur; POSTEMERGENCE, Rate 50 g/ha) | Plant response rating, Wild buckwheat (wild buckwheat; Rate 10 g/ha) | Plant response rating, Wild buckwheat (wild buckwheat; Rate 50 g/ha) | Plant response rating, Chickweed (chickweed [4]; Rate 10 g/ha) | Plant response rating, Chickweed (chickweed [4]; Rate 50 g/ha) | Plant response rating, Velvetleaf (velvetleaf; POSTEMERGENCE, Rate 10 g/ha) | Plant response rating, Morningglory (morningglory; POSTEMERGENCE, Rate 50 g/ha) | Plant response rating, Morningglory (morningglory; PREEMERGENCE, Rate 50 g/ha)
85: Plant response rating (0 to 100), Chickweed (chickweed [6]; Rate 16 g/ha)
20: Plant response rating (0 to 100), Umbrella sedge (umbrella sedge; POSTEMERGENCE section, flood test, Rate 4 g/ha) | Plant response rating (0 to 100), Barley Igri (barley [3]; Rate 1 g/ha)
4: Plant response rating, Barley (barley [1]; POSTEMERGENCE, Rate 10 g/ha) | Plant response rating, Barley (barley [1]; POSTEMERGENCE, Rate 50 g/ha)
2: Plant response rating, Soybean (soybean [2]; PREEMERGENCE, Rate 50 g/ha)
9: Plant response rating, Soybean (soybean [2]; POSTEMERGENCE, Rate 50 g/ha) | Plant response rating, Velvetleaf (velvetleaf; POSTEMERGENCE, Rate 50 g/ha) | Plant response rating, Velvetleaf (velvetleaf; PREEMERGENCE, Rate 50 g/ha) | Plant response rating, Morningglory (morningglory; POSTEMERGENCE, Rate 10 g/ha) | Plant response rating, Bedstraw (bedstraw; Rate 50 g/ha)
